# Assay results: PubChem BioAssay (NCI)
#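 Following 48 hours of exposure in 96-well plates, responses at five concentrations were used to interpolate endpoints linearly. TGI: concentration producing complete growth inhibition.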
# Columns and labels:
# Assay in all cases: DTP human tumour cell line panel, 48 h
# UACC-257 melanoma = tested on: UACC-257 melanoma
# NCI-H23 lung = tested on: NCI-H23 lung
# SNB-75 CNS = tested on: SNB-75 CNS
# OVCAR-8 ovarian = tested on: OVCAR-8 ovarian
# UO-31 renal = tested on: UO-31 renal
# SF-295 CNS = tested on: SF-295 CNS
# MALME-3M melanoma = tested on: MALME-3M melanoma
# LOX IMVI melanoma = tested on: LOX IMVI melanoma
# HL-60(TB) leukemia = tested on: HL-60(TB) leukemia
# OVCAR-4 ovarian = tested on: OVCAR-4 ovarian
# M14 melanoma = tested on: M14 melanoma
# NCI-H522 lung = tested on: NCI-H522 lung
# CCRF-CEM leukemia = tested on: CCRF-CEM leukemia
# BT-549 breast = tested on: BT-549 breast
# NCI-H226 lung = tested on: NCI-H226 lung
# DU-145 prostate = tested on: DU-145 prostate
# HCC-2998 colon = tested on: HCC-2998 colon
# MCF7 breast = tested on: MCF7 breast
# SR leukemia = tested on: SR leukemia
Compound,TGI (UACC-257 melanoma),TGI (NCI-H23 lung),TGI (SNB-75 CNS),TGI (OVCAR-8 ovarian),TGI (UO-31 renal),TGI (SF-295 CNS),TGI (MALME-3M melanoma),TGI (LOX IMVI melanoma),TGI (HL-60(TB) leukemia),TGI (OVCAR-4 ovarian),TGI (M14 melanoma),TGI (NCI-H522 lung),TGI (CCRF-CEM leukemia),TGI (BT-549 breast),TGI (NCI-H226 lung),TGI (DU-145 prostate),TGI (HCC-2998 colon),TGI (MCF7 breast),TGI (SR leukemia)
CCCN1CN(C(C(=O)N[C@@H]2C(=O)N3C(C(=O)O)=C(C)CSC23)c2ccccc2)CSC1=S (some centres not stated),> 100 µM,> 100 µM,> 100 µM,> 100 µM,> 100 µM,> 100 µM,> 100 µM,> 100 µM,> 100 µM,> 100 µM,> 100 µM,> 100 µM,> 100 µM,–,–,–,–,–,–
C/C(=C\[C@H]1C[C@@H]([C@@H]2CC[C@]34C[C@]23C=C[C@@H]2[C@@]3(C)CC=C5C[C@@H](c6ccccc6)OC[C@]5(C)[C@@H]3C[C@@H](O)[C@]24C)C(=O)O1)CO,30.7 µM,36 µM,92 µM,> 100 µM,9.54 µM,15.7 µM,82.5 µM,> 100 µM,–,> 62.7 µM,> 100 µM,89.3 µM,> 100 µM,98.6 µM,> 94.2 µM,> 67.9 µM,> 26.4 µM,> 100 µM,–
COC(=O)/C(Cl)=C1/CC1COCc1ccccc1 (configuration not stated),> 100 µM,88.2 µM,> 100 µM,> 100 µM,67.5 µM,> 100 µM,83.1 µM,> 10 µM,38.7 µM,84.2 µM,31.2 µM,40.5 µM,43.5 µM,–,81.9 µM,–,> 10 µM,–,–
Clc1cccc(Cl)c1C1SCc2nc3ncccc3n21 (configuration not stated),> 100 µM,> 100 µM,> 100 µM,> 100 µM,> 100 µM,> 100 µM,> 100 µM,> 100 µM,> 100 µM,> 100 µM,> 100 µM,> 100 µM,> 100 µM,–,> 100 µM,> 100 µM,> 100 µM,–,> 100 µM
O=C1CSc2ccncc2N1,> 100 µM,> 100 µM,> 100 µM,> 100 µM,> 100 µM,> 100 µM,> 100 µM,> 100 µM,> 100 µM,> 100 µM,> 100 µM,–,> 100 µM,–,> 100 µM,–,> 100 µM,–,> 100 µM
COC(=O)c1c/c(=N\NC(=O)CC(=O)Nc2ccc(C)cc2)c2ccccc2o1,> 100 µM,> 100 µM,> 100 µM,> 100 µM,> 100 µM,> 100 µM,> 100 µM,> 100 µM,> 100 µM,> 100 µM,> 100 µM,> 100 µM,> 100 µM,–,> 100 µM,–,–,–,> 100 µM
O=C(CN1C(=O)c2ccccc2C1=O)OCC1CCCN2CCCCC12 (configuration not stated),> 100 µM,> 100 µM,> 100 µM,> 100 µM,> 100 µM,> 100 µM,> 100 µM,> 100 µM,> 100 µM,> 100 µM,–,–,> 100 µM,> 100 µM,> 100 µM,> 100 µM,> 100 µM,> 100 µM,–
Cc1cc(-c2ccc(Cl)cc2)c(C#N)c(=S)n1C1OC(CO)C(O)C(O)C1O (configuration not stated),> 100 µM,> 100 µM,78.7 µM,> 100 µM,–,> 100 µM,> 100 µM,> 100 µM,> 100 µM,> 100 µM,> 100 µM,> 100 µM,> 100 µM,–,> 100 µM,> 100 µM,> 100 µM,> 100 µM,> 100 µM
COc1ccc(C2S/C(=C\c3cccc([N+](=O)[O-])c3)C(=O)N2NC(=O)Cc2ccccc2)cc1 (configuration not stated),> 100 µM,> 100 µM,> 100 µM,> 100 µM,> 100 µM,> 100 µM,> 100 µM,> 100 µM,> 100 µM,> 100 µM,> 100 µM,> 100 µM,> 100 µM,–,> 100 µM,–,–,–,> 100 µM
Cc1ccccc1Nc1cn(CCOc2ccccc2)c(=O)n(CCOc2ccccc2)c1=O,> 100 µM,> 100 µM,–,–,> 100 µM,> 100 µM,63.7 µM,> 100 µM,> 100 µM,> 100 µM,> 100 µM,> 100 µM,> 100 µM,> 100 µM,–,> 100 µM,> 100 µM,> 100 µM,–
CC(C)(C)OC(=O)N1C(=O)OC[C@@H]2C=C[C@@H]21,> 100 µM,> 100 µM,–,> 100 µM,–,> 100 µM,> 100 µM,> 100 µM,> 100 µM,> 100 µM,> 100 µM,> 100 µM,> 100 µM,> 100 µM,–,> 100 µM,–,> 100 µM,–
CC1(C)CC[C@]2(C(=O)O)CC[C@]3(C)C(=CC[C@@H]4[C@@]5(C)CC[C@@H]6OC(C)(C)OC[C@@]6(C)[C@@H]5CC[C@]43C)[C@H]2C1,31.8 µM,–,27.7 µM,> 100 µM,25.6 µM,27.6 µM,25.6 µM,20.7 µM,32.9 µM,> 100 µM,33.7 µM,29 µM,37.1 µM,–,–,31.9 µM,27.5 µM,–,34 µM
CO/N=C/c1c(-c2ccc(Cl)cc2)c(/C=N/OC)n2c1sc1ccccc12,> 100 µM,> 100 µM,> 100 µM,> 100 µM,> 100 µM,> 100 µM,> 100 µM,> 100 µM,> 100 µM,> 100 µM,–,> 100 µM,> 100 µM,> 100 µM,–,> 100 µM,> 100 µM,> 100 µM,–
[O-][n+]1onc2c1-c1nonc1CC2,59.4 µM,61.4 µM,–,> 100 µM,> 100 µM,> 100 µM,54 µM,79 µM,96.2 µM,74.1 µM,89.8 µM,95.1 µM,> 100 µM,–,76.3 µM,> 100 µM,> 100 µM,> 100 µM,> 100 µM
